In US20250186416A1, “SMOKING CESSATION COMPOUNDS HAVING REDUCED NITROSAMINES AND ASSOCIATED METHODS” (Achieve Life Sciences, Inc., priority 2023, published 2025):
Read-outs that look alike come from different tables or passages of the source.

Key:
[1] = cited from earlier work

SMILES | NNC equivalent in the standard tablet formulation (equivalent of 152 ppb in API) | highest level of NNC observed in representative batches of drug substance (API) (storage about 10 months to about 8 years after manufacture) [ppb] | reported pH of ascorbic acid in water ([1]; 5 mg/ml) | reported pH of ascorbic acid in water ([1]; 50 mg/ml)
O=c1cccc2n1C[C@@H]1CNC[C@H]2C1 [drug substance (API), cytisine] | approximately 0.46 ng/tablet | 152 |  | 
O=C1O[C@H]([C@@H](O)CO)C(O)=C1O [ascorbic acid] |  |  | 3 | 2
